In the supplement of paper PMC6045584:
± gives the standard deviation of the averaged measurements.

Assays:
FORETINIB = compound: COc1cc2c(Oc3ccc(NC(=O)C4(C(=O)Nc5ccc(F)cc5)CC4)cc3F)ccnc2cc1OCCCN1CCOCC1 [FORETINIB]; experiment: surviving fraction relative to DMSO-only wells; higher = less growth inhibition; conditions: exposure time: 5 days
Procedure, shortened: (§1)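 Lines were retained only if, across three screens, replicate Pearson r was >0.7 and median Z' was >0.3. Viability was measured as CellTiter-Glo luminescence and reported as surviving fraction relative to the median of DMSO-only wells. Readings followed 10 minutes at room temperature, after log-phase tumour cells seeded at 250–500 per well in 384-well plates had been exposed, from 24 hours after seeding, continuously for five days to inhibitors at 0.5, 1, 5, 10, 50, 100, 500 and 1000 nM.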

MLN-4924 = compound: NS(=O)(=O)OC[C@@H]1C[C@@H](n2ccc3c(N[C@H]4CCc5ccccc54)ncnc32)C[C@@H]1O [MLN-4924]; experiment: as above; conditions: exposure time: 5 days
Procedure, shortened: as §1

| Test System | surviving fraction (FORETINIB; 0.5 nM) | surviving fraction (FORETINIB; 1 nM) | surviving fraction (FORETINIB; 5 nM) | surviving fraction (FORETINIB; 10 nM) | surviving fraction (FORETINIB; 50 nM) | surviving fraction (FORETINIB; 100 nM) | surviving fraction (FORETINIB; 500 nM) | surviving fraction (FORETINIB; 1000 nM) | surviving fraction (MLN-4924; 0.5 nM) | surviving fraction (MLN-4924; 1 nM) | surviving fraction (MLN-4924; 5 nM) | surviving fraction (MLN-4924; 10 nM) | surviving fraction (MLN-4924; 50 nM) | surviving fraction (MLN-4924; 100 nM) | surviving fraction (MLN-4924; 500 nM) | surviving fraction (MLN-4924; 1000 nM) |
| --- | --- | --- | --- | --- | --- | --- | --- | --- | --- | --- | --- | --- | --- | --- | --- | --- |
| PCI30 HEADNECK | 1.07 ± 0.09 | 1.1 ± 0.043 | 1.1 ± 0.019 | 1.11 ± 0.045 | 1.04 ± 0.028 | 1.04 ± 0.072 | 0.806 ± 0.056 | 0.484 ± 0.0076 | 1.01 ± 0.028 | 1.01 ± 0.072 | 1.04 ± 0.023 | 0.939 ± 0.027 | 0.724 ± 0.028 | 0.701 ± 0.056 | 0.414 ± 0.015 | 0.377 ± 0.019 |
| RDES SOFT TISSUE | 1.31 ± 0.058 | 1.25 ± 0.13 | 1.17 ± 0.088 | 1.07 ± 0.065 | 0.989 ± 0.12 | 0.892 ± 0.092 | 0.226 ± 0.013 | 0.106 ± 0.0059 | 1.24 ± 0.12 | 1.11 ± 0.22 | 1.29 ± 0.17 | 1.26 ± 0.081 | 0.952 ± 0.018 | 0.687 ± 0.067 | 0.0467 ± 0.0025 | 0.0413 ± 0.0021 |
| S68 BREAST | 0.862 ± 0.072 | 0.875 ± 0.33 | 1.35 ± 0.14 | 0.916 ± 0.15 | 1.05 ± 0.082 | 0.78 ± 0.059 | 0.313 ± 0.025 | 0.331 ± 0.077 | 0.837 ± 0.21 | 0.964 ± 0.11 | 0.764 ± 0.18 | 1.07 ± 0.19 | 0.6 ± 0.074 | 0.326 ± 0.05 | 0.172 ± 0.024 | 0.105 ± 0.007 |
| SAOS2 BONE | 1.17 ± 0.045 | 1.12 ± 0.072 | 1.12 ± 0.048 | 1.17 ± 0.069 | 1.15 ± 0.15 | 1.08 ± 0.15 | 0.611 ± 0.082 | 0.162 ± 0.03 | 1.14 ± 0.096 | 1.1 ± 0.082 | 1.13 ± 0.057 | 1.1 ± 0.069 | 0.313 ± 0.03 | 0.095 ± 0.0095 | 0.038 ± 0.0017 | 0.0377 ± 0.0015 |
| SCC003 HEADNECK | 1.09 ± 0.068 | 1.14 ± 0.033 | 1.12 ± 0.074 | 1.11 ± 0.038 | 1.04 ± 0.066 | 1.06 ± 0.088 | 0.912 ± 0.046 | 0.485 ± 0.0087 | 1.14 ± 0.039 | 1.1 ± 0.016 | 1.11 ± 0.028 | 1.11 ± 0.048 | 1.11 ± 0.14 | 0.988 ± 0.041 | 0.526 ± 0.037 | 0.375 ± 0.037 |
| SCC36 HEADNECK | 1.06 ± 0.11 | 1.11 ± 0.13 | 1.17 ± 0.02 | 1.13 ± 0.047 | 1.115 ± 0.0078 | 1.08 ± 0.061 | 0.742 ± 0.084 | 0.41 ± 0.035 | 1.06 ± 0.18 | 0.955 ± 0.11 | 1.13 ± 0.061 | 1.14 ± 0.09 | 0.544 ± 0.12 | 0.259 ± 0.029 | 0.0483 ± 0.0085 | 0.047 ± 0.002 |
| SCC47 HEADNECK | 1.17 ± 0.042 | 1.2 ± 0.09 | 1.18 ± 0.029 | 1.19 ± 0.06 | 1.12 ± 0.014 | 1.02 ± 0.035 | 0.97 ± 0.047 | 0.51 ± 0.024 | 1.12 ± 0.028 | 1.1 ± 0.11 | 1.06 ± 0.016 | 1.07 ± 0.022 | 0.717 ± 0.053 | 0.51 ± 0.05 | 0.307 ± 0.025 | 0.263 ± 0.024 |
| SCC90 HEADNECK | 1.08 ± 0.073 | 1.02 ± 0.045 | 1.1 ± 0.19 | 1.08 ± 0.071 | 1.23 ± 0.061 | 1.12 ± 0.12 | 0.753 ± 0.077 | 0.753 ± 0.25 | 1.09 ± 0.27 | 1.04 ± 0.042 | 1.04 ± 0.099 | 0.541 ± 0.0053 | 0.212 ± 0.033 | 0.167 ± 0.01 | 0.144 ± 0.018 | 0.16 ± 0.032 |
| SG27 HEADNECK | 0.986 ± 0.14 | 1.12 ± 0.063 | 1.07 ± 0.11 | 1.11 ± 0.14 | 0.962 ± 0.12 | 1.02 ± 0.075 | 0.901 ± 0.11 | 0.829 ± 0.078 | 1.07 ± 0.041 | 1.1 ± 0.12 | 1.11 ± 0.055 | 1.16 ± 0.13 | 0.991 ± 0.17 | 0.823 ± 0.076 | 0.618 ± 0.098 | 0.322 ± 0.055 |
| SG28 HEADNECK | 1.04 ± 0.07 | 1.15 ± 0.12 | 1.12 ± 0.077 | 0.972 ± 0.011 | 1.02 ± 0.054 | 0.941 ± 0.054 | 0.826 ± 0.023 | 0.512 ± 0.046 | 1.16 ± 0.16 | 1.16 ± 0.03 | 1.153 ± 0.0099 | 1.1 ± 0.032 | 0.726 ± 0.076 | 0.614 ± 0.1 | 0.296 ± 0.024 | 0.24 ± 0.0099 |
| SG31 HEADNECK | 1.38 ± 0.16 | 1.41 ± 0.11 | 1.1 ± 0.18 | 1.09 ± 0.21 | 0.969 ± 0.14 | 1.12 ± 0.11 | 1.02 ± 0.17 | 0.898 ± 0.087 | 1.21 ± 0.15 | 1.37 ± 0.22 | 1.06 ± 0.24 | 1.12 ± 0.14 | 0.671 ± 0.12 | 0.553 ± 0.062 | 0.247 ± 0.0062 | 0.198 ± 0.034 |
| SG32 HEADNECK | 1.15 ± 0.13 | 1.24 ± 0.36 | 1.27 ± 0.19 | 1.22 ± 0.041 | 1.03 ± 0.1 | 1.17 ± 0.26 | 0.374 ± 0.011 | 0.264 ± 0.0095 | 1.17 ± 0.11 | 1.05 ± 0.14 | 1.36 ± 0.08 | 1.28 ± 0.16 | 1.04 ± 0.044 | 0.797 ± 0.051 | 0.277 ± 0.023 | 0.186 ± 0.018 |
| SG43 HEADNECK | 1.03 ± 0.26 | 0.918 ± 0.14 | 0.678 ± 0.063 | 0.732 ± 0.032 | 0.727 ± 0.15 | 0.883 ± 0.12 | 0.545 ± 0.11 | 0.247 ± 0.076 | 1.15 ± 0.29 | 1 ± 0.32 | 1.02 ± 0.26 | 1.15 ± 0.18 | 0.885 ± 0.19 | 1.11 ± 0.15 | 0.463 ± 0.094 | 0.223 ± 0.087 |
| SIHA CERVIX | 1.12 ± 0.02 | 1.18 ± 0.04 | 1.09 ± 0.046 | 1.09 ± 0.081 | 1.01 ± 0.066 | 1.01 ± 0.031 | 0.667 ± 0.019 | 0.523 ± 0.0076 | 1.04 ± 0.11 | 1.07 ± 0.057 | 1.16 ± 0.099 | 1.22 ± 0.092 | 0.81 ± 0.086 | 0.611 ± 0.077 | 0.377 ± 0.021 | 0.312 ± 0.026 |
| SJSA1 BONE | 1.14 ± 0.026 | 1.7 ± 0.03 | 1.69 ± 0.15 | 1.74 ± 0.063 | 1.48 ± 0.1 | 1.74 ± 0.075 | 1.46 ± 0.069 | 1.83 ± 0.038 | 0.247 ± 0.017 | 1.7 ± 0.13 | 1.68 ± 0.098 | 1.57 ± 0.046 | 1.64 ± 0.17 | 1.8 ± 0.063 | 1.62 ± 0.033 | 1.73 ± 0.071 |
| SKBR3 BREAST | 1.11 ± 0.02 | 1.14 ± 0.15 | 1.08 ± 0.063 | 1.08 ± 0.15 | 1.13 ± 0.066 | 0.982 ± 0.064 | 0.886 ± 0.065 | 0.868 ± 0.11 | 1.01 ± 0.067 | 1.06 ± 0.12 | 1.11 ± 0.083 | 1.01 ± 0.062 | 0.187 ± 0.015 | 0.14 ± 0.01 | 0.159 ± 0.017 | 0.175 ± 0.011 |
| SNU475 LIVER | 1.05 ± 0.052 | 1.03 ± 0.025 | 0.957 ± 0.087 | 1 ± 0.036 | 0.967 ± 0.016 | 0.979 ± 0.035 | 0.853 ± 0.055 | 0.502 ± 0.03 | 0.976 ± 0.031 | 1.04 ± 0.031 | 1.04 ± 0.023 | 1.04 ± 0.062 | 1.12 ± 0.059 | 1.08 ± 0.046 | 0.663 ± 0.036 | 0.53 ± 0.012 |
| SUM44 BREAST | 1.14 ± 0.27 | 1.19 ± 0.36 | 1.18 ± 0.27 | 1.23 ± 0.31 | 1.19 ± 0.21 | 1.26 ± 0.32 | 1.11 ± 0.17 | 1.12 ± 0.19 | 1.22 ± 0.37 | 1.27 ± 0.4 | 1.27 ± 0.33 | 1.23 ± 0.36 | 0.785 ± 0.24 | 0.63 ± 0.22 | 0.486 ± 0.13 | 0.495 ± 0.17 |
| SUM149 BREAST | 0.95 ± 0.004 | 0.912 ± 0.011 | 1.04 ± 0.17 | 0.9 ± 0.0082 | 0.831 ± 0.036 | 0.969 ± 0.13 | 0.353 ± 0.05 | 0.409 ± 0.021 | 1.08 ± 0.13 | 1.01 ± 0.16 | 1.09 ± 0.13 | 1.056 ± 0.0092 | 0.86 ± 0.073 | 0.555 ± 0.046 | 0.0803 ± 0.017 | 0.066 ± 0.003 |
| SUM149.B1*.S BREAST | 1.13 ± 0.068 | 1.19 ± 0.078 | 1.12 ± 0.022 | 1.11 ± 0.021 | 1.11 ± 0.059 | 1.09 ± 0.054 | 0.855 ± 0.033 | 0.515 ± 0.067 | 1.13 ± 0.076 | 1.09 ± 0.063 | 1.09 ± 0.021 | 1.08 ± 0.031 | 1.002 ± 0.0051 | 0.675 ± 0.057 | 0.107 ± 0.0071 | 0.0892 ± 0.0075 |
| SUM159 BREAST | 1.13 ± 0.038 | 1.12 ± 0.046 | 1.11 ± 0.038 | 1.09 ± 0.028 | 1.071 ± 0.0061 | 1.06 ± 0.018 | 1.01 ± 0.018 | 0.566 ± 0.037 | 1.11 ± 0.039 | 1.07 ± 0.043 | 1.08 ± 0.023 | 1.07 ± 0.017 | 1.05 ± 0.018 | 1.01 ± 0.012 | 0.75 ± 0.022 | 0.433 ± 0.02 |
